Data published in PubChem BioAssay AID2060621 (Molecular Pharmacology Branch, DTP, NCI, 2025).

Tested on: 324938-238-R-J1-PDC complex spheroids viability
Experiment: Anticancer human tumor 324938-238-R-J1-PDC patient-derived bladder carcinoma cell line growth inhibition [CLK]
Conditions: for IC50: curve of first compound; for viability, T/C: stronger effect = lower value
In short: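 Patient-derived tumor cells grown as complex spheroids with HUVEC endothelial cells and mesenchymal stem cells, treated with drug combinations. Concentrations descend in half-log steps from near clinical Cmax, or from 10 microM if Cmax unknown.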
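Note: viability read after seven days of drug exposure.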
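Throughout, for viability, T/C: 100% = DMSO vehicle control wells.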

For `C=CC(=O)Nc1cc(Nc2nccc(-c3cn(C)c4ccccc34)n2)c(OC)cc1N(C)CCN(C)C` + CN1CCN(c2cc(C(=O)Nc3cc4cc(-c5cnn(C)c5)ccc4cn3)ccn2)CC1, the IC50 (second compound 0.0316 µM) was 69.5 nM, the IC50 (second compound 0.1 µM) was 6.25 nM and the IC50 (second compound 0.316 µM) was under 0.949 nM. It also gave an IC50 (second compound 1 µM) of under 0.949 nM, an IC50 (second compound 3.16 µM) of under 0.949 nM and an IC50 (second compound 10 µM) of under 0.949 nM. For the same compound, the viability, T/C (second compound 0.0316 µM, first compound 0.000949 µM) was 80%, the viability, T/C (second compound 0.0316 µM, first compound 0.003 µM) was 77.5% and the viability, T/C (second compound 0.0316 µM, first compound 0.00949 µM) was 69.7%. It also gave a viability, T/C (second compound 0.0316 µM, first compound 0.03 µM) of 66.3%, a viability, T/C (second compound 0.0316 µM, first compound 0.0949 µM) of 43.7% and a viability, T/C (second compound 0.0316 µM, first compound 0.3 µM) of 25.3%. The viability, T/C (second compound 0.1 µM, first compound 0.000949 µM) was 60.3%, the viability, T/C (second compound 0.1 µM, first compound 0.003 µM) was 48.5% and the viability, T/C (second compound 0.1 µM, first compound 0.00949 µM) was 51%. It also gave a viability, T/C (second compound 0.1 µM, first compound 0.03 µM) of 39%, a viability, T/C (second compound 0.1 µM, first compound 0.0949 µM) of 33% and a viability, T/C (second compound 0.1 µM, first compound 0.3 µM) of 19.1%. It also gave a viability, T/C (second compound 0.316 µM, first compound 0.000949 µM) of 19.7%, a viability, T/C (second compound 0.316 µM, first compound 0.003 µM) of 22.8% and a viability, T/C (second compound 0.316 µM, first compound 0.00949 µM) of 20.9%. For the same compound, the viability, T/C (second compound 0.316 µM, first compound 0.03 µM) was 21.8%, the viability, T/C (second compound 0.316 µM, first compound 0.0949 µM) was 17.1% and the viability, T/C (second compound 0.316 µM, first compound 0.3 µM) was 15.7%. It also gave a viability, T/C (second compound 1 µM, first compound 0.000949 µM) of 1.22%, a viability, T/C (second compound 1 µM, first compound 0.003 µM) of 1.22% and a viability, T/C (second compound 1 µM, first compound 0.00949 µM) of 1.43%. For the same compound, the viability, T/C (second compound 1 µM, first compound 0.03 µM) was 1.11%, the viability, T/C (second compound 1 µM, first compound 0.0949 µM) was 1.21% and the viability, T/C (second compound 1 µM, first compound 0.3 µM) was 0.28%. For the same compound, the viability, T/C (second compound 3.16 µM, first compound 0.000949 µM) was 0.13%, the viability, T/C (second compound 3.16 µM, first compound 0.003 µM) was 0.13% and the viability, T/C (second compound 3.16 µM, first compound 0.00949 µM) was 0.19%. It also gave a viability, T/C (second compound 3.16 µM, first compound 0.03 µM) of 0.14%, a viability, T/C (second compound 3.16 µM, first compound 0.0949 µM) of 0.11% and a viability, T/C (second compound 3.16 µM, first compound 0.3 µM) of 0.16%. It also gave a viability, T/C (second compound 10 µM, first compound 0.000949 µM) of 0.15%, a viability, T/C (second compound 10 µM, first compound 0.003 µM) of 0.16% and a viability, T/C (second compound 10 µM, first compound 0.00949 µM) of 0.21%. For the same compound, the viability, T/C (second compound 10 µM, first compound 0.03 µM) was 0.16%, the viability, T/C (second compound 10 µM, first compound 0.0949 µM) was 0.18% and the viability, T/C (second compound 10 µM, first compound 0.3 µM) was 0.21%.
